Experimental data from US9381246B2, “Cancer therapy” (TriAct Therapeutics, Inc., priority 2013, dated 2016).
“Also recorded” adds a separate entry of the source.

Columns and labels:
Met = assay: Total protein levels over time-course (FIG. 9); format: cell-based; conditions: 2, 4, 8 and 24 hours after treatment, compared to control
Sprague Dawley rats = assay: 28-day multi-dose oral toxicity, rats; format: in vivo, rat
Experimental: A rat 28-day multi-dose toxicology assessment was conducted at 15, 150, or 500 mg/kg/day.

in vivo [1] = conditions: New Zealand white, rabbit, po
[2] = Phase 1b and 2a clinical data; format: in vivo
Excerpt: It provides a competitive advantage over previously described compounds in that the present inventors have identified a novel proposed mechanism of action (MOA), which has been market validated (EGFR & cMet) and clinically validated (IGFR). […] Dose selection has also been determined.

[3] = tested on: Additional NSCLC cell lines; assay: Growth of additional NSCLC cell lines (FIG. 12); format: cell-based; conditions: growth compared to untreated cells
Excerpt: FIG. 12. […] Growth is shown on the y axis compared to untreated cells.

breast xenograft = assay: Breast xenograft tumor growth (FIG. 17); format: in vivo
Excerpt: FIG. 17. […] Tumor volume is shown (y axis) at various time days post tumor challenge (x axis).

xenografts of Table 3 = assay: Efficacy in the xenografts of Table 3; format: in vivo; conditions: NCI-H209, AsPC-1, HPAC, SW850, MDA-MB435, Her-2 over expressing breast, LoVo, C4-I, neuroblastoma, NCI-H1264
Beagle dogs [4] = assay: Multi-dose oral toxicity, dogs; format: in vivo, dog
Experimental: A dog 28-day multi-dose toxicology assessment was also conducted.

HER2 = assay: Total protein levels over time-course (FIG. 9); format: cell-based; conditions: 2, 4, 8 and 24 hours after treatment, compared to control
IGF-IR = assay: Total protein levels over time-course (FIG. 9); format: cell-based; conditions: 2, 4, 8 and 24 hours after treatment, compared to control
KDR (VEGFR2) = KDR (VEGFR2) (Homo sapiens, UniProt P35968); assay: KDR (VEGFR2) kinase inhibition; format: biochemical; conditions: data from 3 sources
Sequence of KDR (VEGFR2) (P35968 20-1356): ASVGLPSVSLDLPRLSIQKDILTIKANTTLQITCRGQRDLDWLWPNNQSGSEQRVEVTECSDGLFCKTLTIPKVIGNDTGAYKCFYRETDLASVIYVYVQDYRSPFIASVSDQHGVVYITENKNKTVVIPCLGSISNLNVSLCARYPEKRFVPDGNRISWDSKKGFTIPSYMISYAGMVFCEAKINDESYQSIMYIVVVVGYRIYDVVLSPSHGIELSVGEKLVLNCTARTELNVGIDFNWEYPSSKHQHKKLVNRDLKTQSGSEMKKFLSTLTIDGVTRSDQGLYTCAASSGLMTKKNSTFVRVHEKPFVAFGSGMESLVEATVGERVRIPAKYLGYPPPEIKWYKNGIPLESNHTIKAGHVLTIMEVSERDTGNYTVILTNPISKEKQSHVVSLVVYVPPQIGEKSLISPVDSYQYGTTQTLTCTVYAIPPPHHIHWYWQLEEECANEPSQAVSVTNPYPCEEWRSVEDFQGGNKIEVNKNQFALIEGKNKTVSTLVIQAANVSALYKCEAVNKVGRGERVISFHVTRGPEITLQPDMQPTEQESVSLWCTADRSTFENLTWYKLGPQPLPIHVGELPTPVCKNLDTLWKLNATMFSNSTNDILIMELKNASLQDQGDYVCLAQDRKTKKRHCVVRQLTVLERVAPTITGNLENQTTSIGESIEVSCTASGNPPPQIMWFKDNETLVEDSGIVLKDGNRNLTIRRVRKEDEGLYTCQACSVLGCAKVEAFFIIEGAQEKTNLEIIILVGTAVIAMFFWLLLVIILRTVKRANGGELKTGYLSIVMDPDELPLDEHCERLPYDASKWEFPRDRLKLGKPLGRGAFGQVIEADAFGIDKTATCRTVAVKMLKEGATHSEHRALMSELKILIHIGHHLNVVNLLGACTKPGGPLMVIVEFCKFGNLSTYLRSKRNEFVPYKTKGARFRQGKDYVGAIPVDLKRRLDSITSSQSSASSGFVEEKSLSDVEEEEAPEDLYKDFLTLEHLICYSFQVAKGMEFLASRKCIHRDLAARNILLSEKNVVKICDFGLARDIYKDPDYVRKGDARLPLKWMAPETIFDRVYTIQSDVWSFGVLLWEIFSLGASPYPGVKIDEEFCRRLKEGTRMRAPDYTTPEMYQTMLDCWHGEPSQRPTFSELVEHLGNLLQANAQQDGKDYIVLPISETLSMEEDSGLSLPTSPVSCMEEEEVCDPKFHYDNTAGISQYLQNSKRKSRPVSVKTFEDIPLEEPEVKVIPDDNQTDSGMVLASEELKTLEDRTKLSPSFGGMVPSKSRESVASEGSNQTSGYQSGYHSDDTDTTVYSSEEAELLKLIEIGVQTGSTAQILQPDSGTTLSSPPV
Excerpt: The inhibition of these targets appears to be via a mechanism of action that is distinct from approved tyrosine kinase inhibitors (TKIs).

in vivo [5] = conditions: CR: 1CD BR, rat, po
IGF1R [6] = molecular target: T1, IGF1R (Homo sapiens, UniProt P08069); assay: IGF1R kinase inhibition (FIG. 7); format: biochemical; conditions: data from 3 sources
EGFR [7] = molecular target: EGFR (Homo sapiens, UniProt P00533); assay: EGFR kinase inhibition / substrate phosphorylation (FIG. 6, 7); format: biochemical
Sequence of EGFR (Homo sapiens, UniProt P00533) (P00533 25-1210): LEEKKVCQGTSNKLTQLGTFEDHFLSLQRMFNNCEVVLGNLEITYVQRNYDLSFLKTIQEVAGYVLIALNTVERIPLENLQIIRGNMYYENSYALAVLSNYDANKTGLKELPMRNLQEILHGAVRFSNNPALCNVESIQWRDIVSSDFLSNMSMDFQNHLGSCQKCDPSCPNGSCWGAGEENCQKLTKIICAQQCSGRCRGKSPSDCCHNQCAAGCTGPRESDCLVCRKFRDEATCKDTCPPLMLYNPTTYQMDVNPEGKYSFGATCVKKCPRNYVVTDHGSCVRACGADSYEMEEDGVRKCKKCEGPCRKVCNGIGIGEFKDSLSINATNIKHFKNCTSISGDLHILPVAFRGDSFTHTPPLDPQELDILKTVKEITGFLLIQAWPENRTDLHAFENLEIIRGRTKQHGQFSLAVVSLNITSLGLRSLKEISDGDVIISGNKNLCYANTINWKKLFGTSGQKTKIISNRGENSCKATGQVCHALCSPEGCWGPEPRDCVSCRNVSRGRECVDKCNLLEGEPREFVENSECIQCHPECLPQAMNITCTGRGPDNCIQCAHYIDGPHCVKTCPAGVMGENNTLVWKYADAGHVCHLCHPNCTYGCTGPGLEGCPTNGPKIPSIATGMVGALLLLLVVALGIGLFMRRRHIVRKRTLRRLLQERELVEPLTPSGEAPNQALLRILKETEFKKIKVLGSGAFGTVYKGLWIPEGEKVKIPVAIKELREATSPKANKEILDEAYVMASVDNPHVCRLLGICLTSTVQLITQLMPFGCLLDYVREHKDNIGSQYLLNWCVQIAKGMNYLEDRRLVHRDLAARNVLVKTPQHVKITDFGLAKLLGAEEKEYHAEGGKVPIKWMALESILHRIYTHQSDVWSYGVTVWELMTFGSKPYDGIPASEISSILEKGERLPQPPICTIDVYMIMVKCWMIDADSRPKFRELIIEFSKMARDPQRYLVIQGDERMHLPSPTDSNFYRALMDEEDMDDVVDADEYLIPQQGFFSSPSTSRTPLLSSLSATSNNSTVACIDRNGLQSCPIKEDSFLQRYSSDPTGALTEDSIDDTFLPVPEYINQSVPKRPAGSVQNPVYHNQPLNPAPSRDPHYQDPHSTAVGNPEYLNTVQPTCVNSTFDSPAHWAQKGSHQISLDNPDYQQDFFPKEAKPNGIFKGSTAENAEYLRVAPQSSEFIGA

[8] = tested on: New Zealand white rabbits; conditions: rabbit, in vivo, po, 14 days
EGFR [9] = assay: Total protein levels over time-course (FIG. 9); format: cell-based; conditions: 2, 4, 8 and 24 hours after treatment, compared to control
NSCLC xenograft = NSCLC xenograft tumor growth (FIG. 16); format: in vivo; conditions: 3 weeks post-tumor challenge
Excerpt: FIG. 16. […] Tumor volume is shown (y axis) at […], 2.5 and 3 weeks post tumor challenge (x axis).

Beagle dogs [10] = assay: Multi-dose toxicity (dose escalation), dogs; format: in vivo
[11] = tested on: Tarceva® resistant cell lines (Kras mutants, EGFR mutants, T790M mutation); assay: Growth of Tarceva resistant cell lines (FIG. 11); format: cell-based; conditions: growth compared to untreated cells
Excerpt: FIG. 11. […] Growth is shown on the y axis compared to untreated cells. A description of the mutations in the cell lines are identified below in Table 1.

c-met = c-met (Homo sapiens, UniProt P08581); assay: c-met kinase inhibition (FIG. 8); format: biochemical; conditions: data from 3 sources
IGF1R [12] = molecular target: T1, IGF1R; assay: IGF-1R tyrosine kinase assay with poly Glu4:Tyr1 (PGT) substrate, Lineweaver-Burke analysis; format: biochemical; set-up: made in house; host or cells: CHO-IGFR cells
Experimental: FIG. 1. […] Tyrosine kinase substrate Glu4: Tyr1 was bound to 96 well plates. […] Phosphorylation of substrate was determined by anti-phosphotyrosine ELISA**.
A Lineweaver-Burke analysis was used to calculate Km and Vmax for this reaction (FIG. 1).
Soluble IGF-1R, partially purified from CHO-IGFR cells were incubated with 10 nM IGF-1 in Kinase Buffer (50 mM, pH 7.4, 150 mM NaCl, 0.1% Triton X-100, 0.1% gelatin, 5 mM MnCl2, 8 mM MgCl2, and 1 mM PMSF) for 1 hr at room temperature (RT). […] Labeled ^32P-ATP (20 μM) was added in the presence of varying concentrations of the tyrosine kinase substrate poly Glu4:Tyr1 (PGT) (0.005 to 4 mg/ml). The reaction was stopped after 30 min at 22° C. by blotting 40 μl of the reaction mixture onto Whatman 3 MM papers. Filter papers were air dried and then subjected to the following washing protocol in 10% TCA with 10 mM Na4P2O7: 15 min at 4° C., 15 min at 20° C., 5 min boiling, 5 min boiling, followed by a short rinse with acetone. The filter papers were then allowed to air dry completely. ^32P incorporation into the substrate was determined by liquid scintillation counting.
Target sequence in this assay (P08069 741-1367 limits assumed): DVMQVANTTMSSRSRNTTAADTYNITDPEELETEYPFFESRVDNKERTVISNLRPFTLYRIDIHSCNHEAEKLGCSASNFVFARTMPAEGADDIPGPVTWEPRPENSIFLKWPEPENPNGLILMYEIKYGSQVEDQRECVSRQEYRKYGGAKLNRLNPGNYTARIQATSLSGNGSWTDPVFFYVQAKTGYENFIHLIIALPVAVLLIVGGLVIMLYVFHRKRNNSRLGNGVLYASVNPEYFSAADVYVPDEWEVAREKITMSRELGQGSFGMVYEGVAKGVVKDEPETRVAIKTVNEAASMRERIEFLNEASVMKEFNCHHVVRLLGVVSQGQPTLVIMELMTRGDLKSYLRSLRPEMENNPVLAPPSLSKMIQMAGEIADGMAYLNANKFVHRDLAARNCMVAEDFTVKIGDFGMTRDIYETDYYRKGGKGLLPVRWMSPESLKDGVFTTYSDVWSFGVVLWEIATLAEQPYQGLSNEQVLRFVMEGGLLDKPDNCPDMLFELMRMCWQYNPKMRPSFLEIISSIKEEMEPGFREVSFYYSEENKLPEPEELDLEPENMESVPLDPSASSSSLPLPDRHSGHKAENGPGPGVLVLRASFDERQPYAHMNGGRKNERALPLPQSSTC
Target sequence in this assay (P08069 31-736 partner limits assumed): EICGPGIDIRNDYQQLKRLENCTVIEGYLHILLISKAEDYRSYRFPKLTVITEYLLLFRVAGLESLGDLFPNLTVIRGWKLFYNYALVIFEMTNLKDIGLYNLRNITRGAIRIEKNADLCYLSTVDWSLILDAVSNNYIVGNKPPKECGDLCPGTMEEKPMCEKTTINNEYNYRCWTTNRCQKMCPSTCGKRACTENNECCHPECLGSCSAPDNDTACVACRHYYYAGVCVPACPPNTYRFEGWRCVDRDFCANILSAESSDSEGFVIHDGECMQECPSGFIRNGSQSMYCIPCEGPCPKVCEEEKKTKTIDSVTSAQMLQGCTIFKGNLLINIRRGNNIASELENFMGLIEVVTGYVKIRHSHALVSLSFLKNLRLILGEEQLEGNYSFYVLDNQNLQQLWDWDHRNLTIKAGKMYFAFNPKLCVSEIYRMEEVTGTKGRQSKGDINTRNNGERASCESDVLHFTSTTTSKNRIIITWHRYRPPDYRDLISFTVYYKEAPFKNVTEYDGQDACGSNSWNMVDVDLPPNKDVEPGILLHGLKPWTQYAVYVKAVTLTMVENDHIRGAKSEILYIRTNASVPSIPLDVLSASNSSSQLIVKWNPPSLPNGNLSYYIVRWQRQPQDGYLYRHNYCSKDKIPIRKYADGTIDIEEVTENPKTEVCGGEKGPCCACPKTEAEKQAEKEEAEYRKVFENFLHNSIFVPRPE
Target sequence in this assay (P05019 49-118 partner limits assumed): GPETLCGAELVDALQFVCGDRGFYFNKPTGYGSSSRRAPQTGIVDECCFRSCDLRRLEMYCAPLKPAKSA

IGF1R [13] = molecular target: T1, IGF1R; assay: ATP binding competition assay
Experimental: Next, competition with ATP was determined directly by employing an assay previously validated to quantify the Km for small molecule kinase inhibitors compete for ATP binding to various kinases (Goldstein et al. 2008).
Target sequence in this assay (P08069 999-1274 limits assumed): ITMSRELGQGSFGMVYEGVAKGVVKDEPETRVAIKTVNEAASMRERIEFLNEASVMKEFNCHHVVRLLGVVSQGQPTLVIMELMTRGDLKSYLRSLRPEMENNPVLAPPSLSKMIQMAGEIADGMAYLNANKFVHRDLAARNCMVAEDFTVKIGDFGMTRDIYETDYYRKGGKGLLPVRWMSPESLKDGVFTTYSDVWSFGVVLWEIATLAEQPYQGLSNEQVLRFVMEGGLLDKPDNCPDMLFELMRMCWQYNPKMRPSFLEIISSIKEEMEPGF

[14] = tested on: second pancreatic xenograft; assay: Second pancreatic xenograft tumor growth (FIG. 19); format: in vivo
Excerpt: FIG. 19. […] Tumor volume is shown (y axis) at various time days post tumor challenge (x axis).

H1975 NSCLC cells = assay: Soft agar colony formation; format: cell-based; conditions: H1975, Iressa®-resistant NSCLC cells (T790M), 11 days
Experimental: FIG. 10. […] Colony formation was determined and results reported normalized to control values as illustrated in FIG. 10.
Colony formation was determined and results reported normalized to control values as illustrated in FIG. 10.

pancreatic xenograft = assay: Pancreatic xenograft tumor growth (FIG. 18); format: in vivo
Excerpt: FIG. 18. […] Tumor volume is shown (y axis) at various time days post tumor challenge (x axis).

[15] = dog 28-day multi-dose toxicology assessment

CC(Cc1ccc(O)c(O)c1)C(C)Cc1ccc(O)c(O)c1 (centres unmarked) [NDGA, nordihydroguaiaretic acid]
Total protein level of Met (Met): reduction in total protein levels
Findings at 150 and 500 mg/kg/day (Sprague Dawley rats; 150 and 500 mg/kg/day, 28 days, listed as TT-100): Stomach and duodenal hypertrophy/alterations; also recorded: adverse events
No-effect dose level (Sprague Dawley rats; oral (gavage), once daily for 28 days): 15 mg/kg/day
LD50 at 14 days (in vivo [1]; female): 1650 mg/kg
LD50 at 14 days (in vivo [1]; male): 2500 mg/kg
Safety and tolerability [2]: safe and well tolerated
Sensitivity of growth to NDGA [3]: sensitive
Tumor growth (tumor volume) compared to control (breast xenograft): inhibited growth
Efficacy in xenografts (xenografts of Table 3): efficacy was shown
Necropsy findings (Beagle dogs [4]; [15]): intestinal mucosal reddening
No observable effect level (NOEL) (Beagle dogs [4]; [15]): 60 mg/kg/day
Tolerability of all of the other doses (Beagle dogs [4]; dog, in vivo): well-tolerated in this
Total protein level of HER2 (HER2): reduction in total protein levels
Total protein level of IGF-IR (IGF-IR): reduction in total protein levels
Inhibition of KDR (VEGFR2) (KDR (VEGFR2)): inhibition
LD50 at 14 days (in vivo [5]): > 5000 mg/kg
Inhibition of IGF1R (IGF1R [6]): inhibition
Inhibition of EGFR / substrate phosphorylation (EGFR [7]): inhibits substrate phosphorylation; also recorded: inhibition
No-effect level [8]: dose of 1000 mg/kg
Total protein level of EGFR (EGFR [9]): reduction in total protein levels
Tumor growth (tumor volume) compared to control (NSCLC xenograft): inhibit tumor growth
Tolerability in the repeated dose phase (Beagle dogs [10]; dog, in vivo, po, 300 mg/kg/day): fairly well tolerated,
Clinical findings in the escalation phase (Beagle dogs [10]; dogs, single oral (capsule) doses of 600 and 1200 mg/kg): Significant emesis,
Sensitivity of growth to NDGA [11]: sensitive
Inhibition of cMet (c-met): inhibition
Mechanism of action of IGF-1R inhibition (IGF1R [12]; varying PGT substrate, 20 μg/ml NDGA): substrate competition
Vmax (IGF1R [12]; with NDGA (+TT100), 10 nM IGF-1, 20 μM ATP): 2.0 pmol/min
Amount of ATP bound to IGF-1R (IGF1R [13]; 30 μM NDGA): unchanged
Interference with binding of a labeled ATP analog to recombinant IGF-1R (IGF1R [13]; any concentration of NDGA up to 100 μM): did not interfere; also recorded: does not interfere
Tumor growth (tumor volume) compared to control [14]: inhibited growth
Activity on colony formation in soft agar (H1975 NSCLC cells): active
Tumor growth (tumor volume) compared to control (pancreatic xenograft): inhibited growth
